Test results taken from patent US20230390223A1, “ADMINISTRATION OF […] COMPOSITIONS FOR TREATING NERVOUS SYSTEM DISORDERS” (PaxMedica, Inc., priority 2020, published 2023).
Where “and” joins values, the source holds several entries; their conditions need not be identical. Identical values can stand only once. Like-named read-outs stand apart in the source and are kept apart here.

Columns and labels:
[1] = Determination of suramin in plasma and brain tissue after IP or IN administration; format: in vivo, mice; details: for Kp: male, Fmr1-knockout B6.129P2-Fmr1tm1Cgr/J, mouse, brain/plasma, other: intranasal, 100 mg/mL, read-out: Average Brain Tissue to Plasma Partitioning Ratio
Text: For the study, male Fmr1-knockout B6.129P2-Fmr1tm1Cgr/J TG mice were purchased from Jackson Laboratories, Bar Harbor, Maine. These mice were of approximately 8 weeks of age. […] The absence of FMRP in these mice induces an over-activation of RAC1, a protein of the Rho GTPase subfamily that plays a critical role in dendritic morphology and synaptic function. These B6.129P2-Fmr1tm1Cgr/J TG mice, provide an animal model for cognitive disabilities and neurodevelopmental disorders.
Mice were accommodated to the research facility for approximately a week. Body weights of all mice were recorded for health monitoring purposes.
The remaining ingredients, except the cyclodextrin are added with mixing. The cyclodextrin is then added with mixing until dissolved. The resultant solution is allowed to sit for 2 hours before using.
Blood samples were collected from all mice at the end of 12 weeks of age. Brain tissue was harvested from all mice upon sacrifice 13-14 weeks of age. Standard sample preparation and analytical techniques were used to obtain the data.

[2] = test system: B6.129P2-Fmr1tm1Cgr/J transgenic (TG) mice; experiment: Light/dark preference test (LDT), anxiety-like behavior, SmartCage; format: in vivo
Text: The light/dark preference test (LDT) is one of the most widely used tests in pharmacology to measure unconditioned anxiety-like behavior in mice. The test is based on the natural aversion of mice to brightly illuminated areas and on their spontaneous exploratory behavior in response to a novel environment and light. See, Takao, K., et al., Light/dark Transition Test for Mice. J. Vis. Exp. (1), e104, doi:10.3791/104 (2006).
This study used a SmartCage™ system, which is an automated non-invasive rodent behavioral monitoring system which enables biomedical researchers to conduct a variety of neurobehavioral assays through consistent and accurate monitoring of rodent home cage activity and behavior. See, Xie X. S. et al. (2012) Rodent Behavioral Assessment in the Home Cage Using the SmartCage™™ System. In: Chen J., Xu X M., Xu Z., Zhang J. (eds) Animal Models of Acute Neurological Injuries II. Springer Protocols Handbooks. Humana Press, Totowa, NJ.
• 1. N=6 mice per group. • 2. All behavioral testing included a group of untreated wild type controls. • 3. Dosing for the various groups were as follows: • a. […] Group 2: IP saline, […], administered weekly to animals beginning at 9 weeks of age and continuing for four weeks (i.e. given at Age Weeks 9, 10, 11 and 12). • c. […] Behavioral tests for all groups (Groups 1-5) began the following day after the last day of IN dosing (Weeks 13-14 of age). • 2. Blood samples (PK testing) were collected from all mice at the end of 12 Weeks of age, just prior to starting the behavioral tests in Week 13. • 3. Brain tissue (for biochemistry testing) was harvested from all mice upon sacrifice at the conclusion of all behavioral testing at the end of 13-14 Weeks of age.
(§1) Male B6.129P2-Fmr1tm1Cgr/J TG mice were purchased from Jackson Laboratories, Bar Harbor, Maine. These mice were of approximately 8(±1) weeks of age. […] Mice accommodated to the research facility for the remainder of the week. Dosing began on the following Monday. Body weights of all mice were recorded for health monitoring purposes.
Dosing was carried out over the course of 28 days as instructed by the study sponsor. • 1. Prior to the beginning of the light/dark test, a dark box (red transparent enclosure with an opening for the mouse to enter) is placed in the SmartCage™. • 2. An individual mouse is placed in the open/non-dark box side (“Light Zone”), with its head facing away from the dark box. • 3. The mouse is then allowed to freely explore the SmartCage™ and enter the dark box “Dark Zone” at its own discretion over a 10-minute span. • 4. Anxiety-like behavior is assessed based on the SmartCage™ monitoring of time spent in the Light Zone, the number of Light Zone entries, and % Time Spent in the Light Zone. • 5. […] Wildtype Control data (collected separately prior to the beginning […] of the B6.129P2-Fmr1tm1Cgr/J TG mice) was added to the final data analysis to serve as a comparison for naive, male C57BL/6 mice.
No food or water is withheld and only natural stressors such as light are used. Four similarly calibrated SmartCages™ were used to record four mice simultaneously (example cage shown below). All Light/Dark tests were completed in one day.
Light/Dark Test Setup—Dark Box placed within the transparent homecage; homecage placed within the SmartCage™ monitoring system.

[3] = test system: B6.129P2-Fmr1tm1Cgr/J transgenic (TG) mice; experiment: Locomotor activity test, SmartCage ~24 h recording; format: in vivo; details: for Active time: versus WT control group
[4] = test system: B6.129P2-Fmr1tm1Cgr/J transgenic (TG) mice; experiment: Step through passive avoidance test (learning and memory); format: in vivo
Text: The Passive Avoidance task is useful for evaluating the effect of novel chemical entities on learning and memory as well as studying the mechanisms involved in rodent models of CNS disorders. In this test, the test chamber is divided into a lighted compartment and a dark compartment, with a gate between the two. The test animals explored both compartments on the first day. The next day, they are given a mild foot shock in the dark compartment and they will learn to associate the dark compartment with the foot shock. In order to test their learning and memory, the mice are then placed back in the lighted compartment. Passive avoidance behavior of rodents is defined as the suppression of their innate preference for the dark compartment. Mice with normal learning and memory will avoid entering the dark chamber. Learning and memory from the previous day is measured by recording the latency to cross through the gate between the two compartments. See, J. David Sweatt, Chapter 4: Rodent Behavioral Learning and Memory Models, Editor: J. David Sweatt. Mechanisms of Memory (Second Edition), Academic Press, 2010, Pages 76-103, ISBN 9780123749512.
This study used a SmartCage™ system, which is an automated non-invasive rodent behavioral monitoring system which enables biomedical researchers to conduct a variety of neurobehavioral assays through consistent and accurate monitoring of rodent home cage activity and behavior. See, Xie et al, 2012.
• 1. N=6 mice per group. • 2. All behavioral testing included a group of untreated wild type (WT) controls. • 3. Dosing for the various groups were as follows: • a. […] Group 2: IP saline, […], administered weekly to animals beginning at 9 weeks of age and continuing for four weeks (i.e. given at Age Weeks 9, 10, 11 and 12). • c. […] Behavioral tests for all groups (Groups 1-5) began the following day after the last day of IN dosing (Weeks 13-14 of age). • 2. Blood samples (for PK testing) were collected from all mice at the end of Week 12 of age, just prior to starting the behavioral tests in Week 13 of age. • 3. Brain tissue (for biochemistry testing) was harvested from all mice upon sacrifice at the conclusion of all behavioral testing at the end of Week 13-14 of age.
as §1, with “TG (TG)” for “TG”, “8 (±1)” for “8(±1)”
Dosing was carried out over the course of 28 days as instructed by the study Sponsor. […]

[5] = test system: mouse model of epilepsy; details: cited from earlier work
[6] = 10-minute test, suramin IN weekly (100 mg/mL, one spray per nostril, 4 weeks)
[7] = suramin IP 20 mg/kg weekly for four weeks
[8] = 5-minute test, suramin IP 20 mg/kg weekly for four weeks
[9] = 10-minute test, group regimens: A-804598 IP 30 mg/kg/day, tangeretin IP 10 mg/kg/day, emodin+piperine PO 20 mg/kg each twice per day

Cc1ccc(C(=O)Nc2ccc(S(=O)(=O)O)c3cc(S(=O)(=O)O)cc(S(=O)(=O)O)c23)cc1NC(=O)c1cccc(NC(=O)Nc2cccc(C(=O)Nc3cc(C(=O)Nc4ccc(S(=O)(=O)O)c5cc(S(=O)(=O)O)cc(S(=O)(=O)O)c45)ccc3C)c2)c1 [suramin, 1,3,5-Naphthalenetrisulfonic acid, 8,8′-[carbonylbis[imino-3,1-phenylenecarbonylimino(4-methyl-3,1-phenylene)carbonylimino]]bis-]
Average Plasma Concentration ([1]; Group 1: IP 20 mg/kg weekly for four weeks, blood at end of 12 weeks of age, 20 mg/kg): 18733 ng/ml and 14.440 μM | Average Plasma Concentration ([1]; Group 3: IN formulation 100 mg/mL, one spray per nostril, one time per day for 28 days): 1637 ng/ml and 1.262 μM | Average Plasma Concentration ([1]; Group 4: IN formulation 100 mg/mL, one spray per nostril, every other day for 28 days): 1578 ng/ml and 1.217 μM | Average Plasma Concentration ([1]; Group 5: IN formulation 100 mg/mL, one spray per nostril, one time every week for 4 weeks): 278.7 ng/ml and 0.215 μM | Kp ([1]; one spray per nostril, Group 3: IN formulation 100 mg/mL, one spray per nostril, one time per day for 28 days): 0.069 | Kp ([1]; one spray per nostril, Group 4: IN formulation 100 mg/mL, one spray per nostril, every other day for 28 days): 0.089 | Kp ([1]; one spray per nostril, Group 5: IN formulation 100 mg/mL, one spray per nostril, one time every week for 4 weeks): 0.235 | percentage of time spent in the Light Zone [2, 6]: higher percentage of time spent in the Light Zone | total time spent in the light zone [2, 6]: ~6.5 min | Dark Zone entry latency ([2]; all IN suramin groups (daily, every other day, weekly; 100 mg/mL, one spray per nostril, 28 days)): 60 to 65 s | Dark Zone entry latency [2, 7]: 30 to 40 s | Active time ([3]; all IN Suramin groups (Daily, Weekly, Every 2 Days)): greater activity compared to the WT control group | Rearing count ([3]; suramin IN every 2 days, versus WT control): comparable to the WT control group | percentage of time spent in the light zone on the test day [4, 8]: approximately 50% | total light zone time on the test day [4, 8]: lower total time | Dark Zone entry latency, Test Day (24 h post-foot shock) [4, 7]: shortest latency for entering the dark compartment

C[C@H](N/C(=N/C#N)Nc1cccc2ncccc12)c1ccccc1 [Formulation A-804598, N-Cyano-N″-[(1S)-1-phenylethyl]-N′-5-quinolinyl-guanidine]
number of Light Zone entries ([2]; 10-minute test, each group at its regimen, compared to WT mice): significantly lower number of light zone entries

O=C(NCC1(N2CCN(c3ccccc3)CC2)CCOCC1)c1cccnc1Sc1ccccc1 [JNJ-47965567, 2-(Phenylthio)-N-[[tetrahydro-4-(4-phenyl-1-piperazinyl)-2H-pyran-4-yl]methyl]-3-pyridinecarboxamide]
effect on epileptic seizures [5]: suppress epileptic seizures

COc1ccc(-c2cc(=O)c3c(OC)c(OC)c(OC)c(OC)c3o2)cc1 [Tangeretin, 5,6,7,8-tetramethoxy-2-(4-methoxyphenyl)-4H-1-benzopyran-4-one]
percentage of time spent in the Light Zone [2, 9]: higher percentage of time spent in the Light Zone | total time spent in the light zone [2, 9]: ~6.5 min | Active time ([3]; A-804598 IP 30 mg/kg/day, tangeretin IP 10 mg/kg/day): greater activity compared to the WT control group | total number of Dark Zone Entries ([4]; test day, tangeretin IP 10 mg/kg/day, emodin+piperine PO 20 mg/kg each twice per day, other groups at their regimens): one
